Measurements taken from patent US20210198284A1, “GOLD COMPOSITIONS AND METHODS OF USE THEREOF” (THE UNIVERSITY OF MASSACHUSETTS, priority 2018, published 2021).
Read-outs that look alike come from different tables or passages of the source.

Assays:
[1] = Log P determination (n-octanol/water, FAAS)
Procedure: Log P Determination: Calibration curves. Milli-Q Water (150 mL) was added to n-octanol (150 mL), and the mixture was stirred for 3 days to allow both phases to reach saturation. The gold standard solution (1000 ppm Au in hydrochloric acid, Fisher Scientific) was diluted to 1, 2, 3, 4 and 5 ppm with n-octanol-saturated water, and the absorbance of the resulting solutions was measured by flame atomic absorption spectroscopy (FAAS, Agilent Technology 200 Series AA, equipped with a gold HC Lamp-Au coded). The absorbance data were plotted against Au concentration, and the resulting calibration curve was used for determining the concentration of the analogs in the aqueous phase.
To construct the standard calibration curve of the Au concentration in the n-octanol phase, compound 27 was used. The Au concentration in compound 27 was first calibrated against the aqueous gold standard. For this, 0.440 mg of compound 27 was weighed on a Sartorius MC5 microbalance, and then added to 22 mL of n-octanol-saturated water. […] For this, solutions of varying concentrations (0.99, 2.47, 4.94, 5.93, 9.88 ppm) of compound 27 in water-saturated n-octanol were prepared. The absorbance was measured by FAAS, and the data were plotted against the Au concentration to provide a second calibration curve, which was used for determining the Au concentration of the analogs in the n-octanol phase.
Determination of Au concentrations: Method 1. 0.5 to 1 mg of compound was weighed into a 2-mL Eppendorf tube containing 2 mL of n-octanol-saturated water. After shaking for about 4 h, the solution was centrifuged at 6000 rpm for 3 min. 1 mL of the supernatant was transferred to a new tube containing 1 mL of water-saturated n-octanol, and the mixture was shaken for 1 h. After centrifugation at 6000 rpm for 5 min, the two layers were collected and the gold concentration in each layer was determined by FAAS by comparing the absorbance to the first and second calibration curves.
Determination of Au concentrations: Method 2. […] For Method 2, 0.6 to 1 mg of compound was weighed into a 2-mL Eppendorf tube containing 1 mL of n-octanol-saturated water and 1 mL of water-saturated n-octanol. After shaking for 3-4 h, the mixture was centrifuged, and all liquid was transferred to a 15-mL tube. The liquid was then diluted with 2 mL of n-octanol-saturated saturated water and 2 mL of water-saturated n-octanol, and the mixture was shaken for another hour. After centrifugation at 6000 rpm for 5 min, the two layers were collected and the gold concentration in each layer was determined by FAAS by comparing the absorbance to the first and second calibration curves.
Log P was calculated as follows: log P=log[compound]oct/[compound]water

A549 cells = assay: Cytotoxicity assay (resazurin); type: cell-based; conditions: 20 h, mean±S.E.M. from two independent experiments
Procedure: Sample preparation. The compounds were dissolved in DMSO at 12.8 mg/mL as the stock solutions, except for compounds 9-17, which were directly dissolved in the culture medium at 12.8 mg/mL. The stock solutions were diluted by the culture medium to the testing concentration at 128 μg/mL (compound 9-17 were diluted to 1,280 μg/mL). The solutions were then serially diluted two fold in a 96-well plate and were used in the cytotoxicity assay immediately.
Cell culture and cytotoxicity assay. A549 cells (ATCC CCL-185) were cultured in high glucose DMEM (Sigma-Aldrich, D6429) supplemented with 10% FBS, 1% penicillin-streptomycin solution (Sigma-Aldrich, P4333), 1% gentamicin solution (Sigma-Aldrich, G1272) and 1% amphotericin B solution (Sigma-Aldrich, A2942) at 37° C. in a humidified atmosphere containing 5% CO2. After cells reached 80%˜90% confluency, they were detached and counted using an Invitrogen Countess automated cell counter. Cells with viability over 90% were seeded at a density of 5×10^3 cells per well in 96-well cell culture plates. After overnight culture, the culture medium in each well removed with a pipet. 80 μL of the compound solutions from each well of the 96-well plate prepared above were transferred to this 96-well plate containing the cells, and the plates were incubated for 20 h. After addition of 8 μL of 110 μg/mL resazurin, the plates were incubated for further 3 h at 37° C. in 5% CO2. The fluorescence intensity was measured using a Tecan M200 Infinite Pro microplate reader at excitation 560 nm, emission 590 nm. IC50 were calculated by curve fitting the inhibition values vs. log(concentration) using GraphPad's Prism. The cytotoxicity assays (in triplicate) were repeated twice using freshly prepared cells and compound solutions.

E. cloacae NCTC 13405 = assay: Antibacterial assay, MIC/MBC by broth microdilution (CLSI); type: cell-based; conditions: E. cloacae NCTC 13405; for MIC: repeated twice, a/b = both values
Procedure: (§1) Antibacterial assay. The minimum inhibitory concentrations (MICs) and the minimum bactericidal concentrations (MBCs) were determined by the broth microdilution method as described in the CLSI (The Clinical & Laboratory Standards Institute) guidelines (Performance standards for antimicrobial susceptibility testing: Clinical and Laboratory Standards Institute (CLSI), Twenty-Fifth informational supplement. Document M100-S25: […]; Vol. 35). All bacterial strains were cultured in cation-adjusted Muller Hinton broth (CAMHB) up to log-phase and then diluted to give a concentration of 7.5×10^5 CFU/mL. The gold complexes were dissolved in DMSO or water as stock solutions, which were then serially diluted two-fold in a 96-well plate. Aliquots (100 μL) of the dilutions were mixed with equal volumes of the bacterium suspension in a 96 well plate (in triplicates). The plates were incubated at 37° C. for 18 h without shaking. Negative and positive controls were included in the same well plate with wells having the culture medium only and bacteria solution only, respectively. The sample concentration that gave inhibition values above 90% were determined as MICs as calculated from absorbance values at 600 nm (OD600) obtained using a Tecan SPARK IOM plate reader. To determine minimum bactericidal concentrations (MBCs), agar plates were treated with 5 μL sample solutions from each well, and then incubated at 37° C. for 18 h without shaking. The sample concentration that gave no colony formed on agar plates were determined as MBCs.
(§2) Selection of bacteria. The ESKAPE pathogens were chosen as they are responsible for the majority of nosocomial infections and also as they provide a good scope of strains including both Gram-negative and Gram-positive species. A. baumannii NCTC 13420 was originally identified in 24 hospitals in the UK during 2000-2003, which produced OXA-51-like β-lactamases, and was highly resistant to ampicillin, piperacillin, piperacillin/tazobactam, ceftazidime, cefotaxime, gentamicin and ciprofloxacin. P. aeruginosa NCTC13437 produces VIM-10 metallo-carbapenemase and VEB-1 (Vietnamese extended-spectrum beta-lactamase). Wild-type strain E. cloacae NCTC 13405 (originally named E. cloacae 684) was isolated from patients at the London Hospital during 1982-1983. This strain has inducible AmpC β-lactamase and is resistant to ampicillin/amoxicillin and cefoxitin. K. pneumoniae ATCC 700603 was isolated from the urine of a hospitalized patient in Richmond, Va. in 1994, and it produces SHV-18 extended spectrum beta-lactamase (ESBL). JE2 (USA300) is a methicillin-resistant S. aureus (MRSA) strain, also resistant to beta-lactams, ciprofloxacin, tetracycline, macrolides (erythromycin), lincosamides (clindamycin), streptogramin B, and mupirocin. E. faecium ATCC 700221, a positive fecal VRE (vancomycin-resistant enterococcus) isolate, is resistant to several antibiotics including vancomycin and teicoplanin. The quality control strain, Gram-negative E. coli ATCC 25922, was included in all assays and validated with ciprofloxacin and […].

[2] = test system: K. pneumoniae ATCC 700603; assay: as above; type: cell-based; conditions: K. pneumoniae ATCC 700603; for MIC: repeated twice, a/b = both values
Procedure: as §1, §2

E. faecalis ATCC 700221 = assay: as above; type: cell-based; conditions: for MIC: repeated twice, a/b = both values
Procedure: as §1, §2

S. aureus JE2 (USA300) = assay: as above; type: cell-based; conditions: S. aureus JE2 (USA300); for MIC: repeated twice, a/b = both values
Procedure: as §1, §2

E. coli ATCC 25922 = assay: as above; type: cell-based; conditions: for MIC: repeated twice, a/b = both values
Procedure: as §1, §2

P. aeruginosa NCTC 13437 = assay: as above; type: cell-based; conditions: P. aeruginosa NCTC 13437; for MIC: repeated twice, a/b = both values
Procedure: as §1, §2

A. baumannii NCTC 13420 = assay: as above; type: cell-based; conditions: A. baumannii NCTC 13420; for MIC: repeated twice, a/b = both values
Procedure: as §1, §2

Substance | Log P [1] | IC50 against A549 cells (A549 cells) [µg/mL] | MBC (in brackets) (E. cloacae NCTC 13405) | MIC (E. cloacae NCTC 13405) | MBC (in brackets) [2] | MIC [2] | MBC (in brackets) (E. faecalis ATCC 700221) | MBC (in brackets) (S. aureus JE2 (USA300)) | MIC (S. aureus JE2 (USA300)) | MBC (in brackets) (E. coli ATCC 25922) | MIC (E. coli ATCC 25922) | MBC (in brackets) (P. aeruginosa NCTC 13437) | MIC (P. aeruginosa NCTC 13437) | MBC (in brackets) (A. baumannii NCTC 13420) | MIC (A. baumannii NCTC 13420) | Log P ([1]; n-octanol/water, gold by FAAS) | MIC (E. faecalis ATCC 700221)
(1-Thio-β-D-galatopyranosato)(triethylphosphine) gold(I) [Compound 10] | −0.73 | 16.9 ± 0.5 | 63 (63) μM/mL | 63 (63) μM/mL | 251 (251) μM/mL | 251 (251) μM/mL | (0.5) μM/mL | (0.1) μM/mL | 0.02 μM/mL | 16 (16) μM/mL | 16 (16) μM/mL | 251 (251) μM/mL | 251 (251) μM/mL | 31 (31) μM/mL | 31 (31) μM/mL |  | 
(1-Thio-β-D-galatopyranosato)(trimethylphosphine) gold(I) [Compound 16] | −1.88 | 43.0 ± 3.7 | 4(4) μM/mL | 4(4) μM/mL | 34 (34) μM/mL | 34 (34) μM/mL | (0.5) μM/mL | 0.3 (0.3) μM/mL | 0.3 (0.3) μM/mL | 9 (9) μM/mL | 9 (9) μM/mL |  | >547 μM/mL | 17 μM/mL | 17/9 |  | 
(1-Thio-β-D-glucopyranosato)(trimethylphosphine) gold(I) [Compound 15] | −1.63 | 52.2 ± 1.0 | 17 μM/mL | 4/9 | 34 (34) μM/mL | 34 (34) μM/mL | (0.5) μM/mL | (1) μM/mL |  | 9 (9) μM/mL | 9 (9) μM/mL |  | >547 μM/mL | 17 μM/mL | 17/4 |  | 
(1-Thio-β-D-maltosato)(triethylphosphine) gold(I) [Compound 14] | −1.69 | 31.0 ± 2.4 | 190 (190) μM/mL | 190 (190) μM/mL |  | >381 μM/mL | (0.4) μM/mL | 4 (0.09) μM/mL |  | 12 (12) μM/mL | 12 (12) μM/mL | 381 (381) μM/mL | 381 (381) μM/mL | 24 (24) μM/mL | 24 (24) μM/mL |  | 
(2-Acetamido-2-deoxy-1-thio-β-D-glucopyranosato)(trimethylphosphine) gold(I) [Compound 17] | −2.03 | 35.5 ± 0.9 | 16 μM/mL | 8/16 | 126 μM/mL | 31 μM/mL | (0.5) μM/mL | 0.5 (0.5) μM/mL | 0.5 (0.5) μM/mL | (31) μM/mL | 8/31 |  | >503 μM/mL | 16 μM/mL | 16/8 |  | 
(Triphenylphosphine) gold chloride [Compound 31] |  | 12.0 ± 1.8 |  | >518 μM/mL |  | >518 μM/mL | 4 (4) μM/mL | 4 μM/mL | 1/2 |  | >518 μM/mL |  | >518 μM/mL |  |  | >3.94 | 4 (4) μM/mL
[β-D-galactopyranosyl-(1→4)-β-D-glucopyranosato](triethylphosphine) gold(I) [Compound 13] |  | 32.9 ± 4.6 | 190 (190) μM/mL | 190 (190) μM/mL | 381 (381) μM/mL | 381 (381) μM/mL | (0.4) μM/mL | 5 (0.09) μM/mL |  | 24 (24) μM/mL | 24 (24) μM/mL | 381 (381) μM/mL | 381 (381) μM/mL |  | 24/48 |  | 0.09 μM/mL
